Results on eleven compounds are retold here after ChEMBL document CHEMBL1201862, “PubChem BioAssay data set” (2004).

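Test compounds were applied to cells in 96-well plates for 48 hours at 5 doses. The concentration for 50% growth inhibition is given as GI50.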 Calls of active or inactive are those of the source. No stated cut-off is given here; in the data, active = GI50 up to about 1.1 µM and inactive = higher. A value given as a limit tells only on which side of the number the result lay.

Some test systems named below: UACC-62; MOLT-4; SF-295; EKVX; TK-10; 786-0; UO-31; NCI-H522; CCRF-CEM; SK-MEL-28; M14; SF-268; HT-29; OVCAR-4; HOP-92; SR; COLO 205; HOP-62; LOX IMVI.
Common to all, as to assay: growth of human tumour cells (NCI), 48 h

Consider `CCN(CC)CCNc1ccc2ncn3c4c(OC)ccc(OC)c4c(=O)c1c23`, for which the GI50 is 22.6 µM (inactive) with UACC-62; 1.45 µM (inactive) with MOLT-4; 13.3 µM (inactive) in the assay with SF-295; 15.3 µM (inactive) in the assay with EKVX; > 100 µM (inactive) in the assay with TK-10; 11.5 µM (inactive) in the assay with 786-0. Also, the GI50 is > 100 µM (inactive) in the assay with UO-31; 15.7 µM (inactive) in the assay with NCI-H522; 1.22 µM (inactive) with CCRF-CEM; 21.2 µM (inactive) with SK-MEL-28; 18.7 µM (inactive) in the assay on M14; 3.24 µM (inactive) in the assay with SF-268. The GI50 in the assay with HT-29 was > 10 µM (inactive); in the assay on OVCAR-4, 6.11 µM (inactive); in the assay on HOP-92 it was 11.2 µM (inactive); with SR, 3.72 µM (inactive); in the assay on COLO 205 it was 0.841 µM (active); in the assay with HOP-62, > 100 µM (inactive).

On to `c1ccc2/c3[nH]/c(c2c1)=N\c1ccc(cc1)-c1nc2cc(ccc2o1)/N=c1/[nH]/c(c2ccccc12)=N/c1ccc2nc(oc2c1)-c1ccc(cc1)\N=3`, for which the GI50 in the assay with UACC-62 was 95.3 µM (inactive); in the assay on MOLT-4, > 100 µM (inactive); in the assay on SF-295, > 100 µM (inactive); with EKVX it was > 100 µM (inactive); in the assay with 786-0, > 100 µM (inactive); in the assay on UO-31, > 100 µM (inactive). In addition, the GI50 in the assay on NCI-H522 was > 100 µM (inactive); with CCRF-CEM it was > 100 µM (inactive); with SK-MEL-28, > 100 µM (inactive); with M14, > 100 µM (inactive); in the assay on SF-268, > 100 µM (inactive); with HT-29, 49.4 µM (inactive). In addition, the GI50 in the assay on OVCAR-4 was > 100 µM (inactive); with SR, > 100 µM (inactive); with COLO 205, > 100 µM (inactive); with LOX IMVI, > 100 µM (inactive); in the assay on HOP-62, 78.3 µM (inactive).

Take `CC(C)(C)CN1[C@@H]2CCCC[C@H]2N(CC(C)(C)C)P1(=O)Cc1ccccc1`: the GI50 with UACC-62 was 10.7 µM (inactive); in the assay with MOLT-4, 11.5 µM (inactive); with SF-295, 10.4 µM (inactive); in the assay on EKVX, 14.3 µM (inactive); in the assay with TK-10 it was 12.5 µM (inactive); with 786-0 it was 15.6 µM (inactive). Further, the GI50 was 13.3 µM (inactive) with UO-31; 7.48 µM (inactive) in the assay with NCI-H522; 11 µM (inactive) in the assay on CCRF-CEM; 16.9 µM (inactive) in the assay on SK-MEL-28; 13.5 µM (inactive) in the assay on M14; 15 µM (inactive) in the assay on SF-268. Moreover, the GI50 in the assay on HT-29 was 10.1 µM (inactive); in the assay on OVCAR-4 it was 10.4 µM (inactive); in the assay on SR, 11.8 µM (inactive); with COLO 205, 10.4 µM (inactive); with LOX IMVI, 15.7 µM (inactive); with HOP-62, 16.4 µM (inactive).

In the case of `O=C(CCc1cc(O)ccc1O)OCCc1ccccc1`, the GI50 in the assay with UACC-62 is 12.4 µM (inactive); with MOLT-4, 1.36 µM (inactive); in the assay with SF-295 it was 37.5 µM (inactive); with EKVX, 16.6 µM (inactive); in the assay with TK-10, 14.7 µM (inactive); in the assay with 786-0, 9.53 µM (inactive). The GI50 in the assay with UO-31 is 4.6 µM (inactive); with NCI-H522, 0.28 µM (active); with CCRF-CEM it was 0.313 µM (active); with SK-MEL-28 it was 25.1 µM (inactive); in the assay with M14, 23.4 µM (inactive); in the assay with SF-268 it was 5.64 µM (inactive). In addition, the GI50 in the assay on HT-29 is 41.1 µM (inactive); with OVCAR-4, 1.49 µM (inactive); in the assay on HOP-92 it was 2.96 µM (inactive); with SR it was 5.6 µM (inactive); in the assay with COLO 205, 14.2 µM (inactive); in the assay with HOP-62 it was 36.1 µM (inactive).

In the case of `N#Cc1cccc(-n2[nH]c(=O)ccc2=O)c1`, the GI50 with UACC-62, in the assay on MOLT-4, with SF-295, with TK-10, in the assay with 786-0 and with UO-31 was > 100 µM (inactive) each time. Also, the GI50 in the assay with NCI-H522, in the assay on CCRF-CEM, in the assay on SK-MEL-28, with M14, with SF-268 and in the assay on HT-29 was > 100 µM (inactive) in each case. Also, the GI50 with OVCAR-4, with HOP-92, in the assay with SR, with COLO 205 and with HOP-62 was > 100 µM (inactive) throughout.

Regarding `OCCOCCO[P+]1(OCCOCCO)n2c3ccc2C(c2ccccc2)=C2C=CC(=N2)C(c2ccccc2)=c2ccc(n21)=C(c1ccccc1)C1=NC(=C3c2ccccc2)C=C1`, the GI50 with UACC-62 was 0.0618 µM (active); in the assay on MOLT-4, 0.0267 µM (active); in the assay on SF-295, 0.281 µM (active); in the assay with EKVX, 0.32 µM (active); in the assay with TK-10 it was 0.426 µM (active); in the assay on 786-0, 0.179 µM (active). In addition, the GI50 was 1.86 µM (inactive) in the assay on UO-31; 0.186 µM (active) with NCI-H522; 0.0231 µM (active) in the assay with CCRF-CEM; 0.0631 µM (active) with SK-MEL-28; 0.272 µM (active) in the assay on M14; 0.0618 µM (active) in the assay with SF-268. In addition, the GI50 with HT-29 was 0.0845 µM (active); in the assay on OVCAR-4, 0.209 µM (active); in the assay on SR it was 1 µM (active); in the assay on COLO 205 it was 0.0206 µM (active); in the assay on LOX IMVI it was 0.0989 µM (active); in the assay on HOP-62, 0.379 µM (active).

With `Cc1ccc(C)n2c1nc1cc3ccccc3cc12`, the GI50 is 18.8 µM (inactive) with UACC-62; 23.3 µM (inactive) in the assay on MOLT-4; 42.3 µM (inactive) in the assay on SF-295; 64.6 µM (inactive) with EKVX; 15.5 µM (inactive) with TK-10; 36.2 µM (inactive) with 786-0. Further, the GI50 is 14.9 µM (inactive) with UO-31; 33.4 µM (inactive) in the assay with CCRF-CEM; 45 µM (inactive) in the assay on SK-MEL-28; 42.6 µM (inactive) in the assay on M14; 64 µM (inactive) in the assay on SF-268; 8.75 µM (inactive) in the assay with HOP-92. In addition, the GI50 in the assay with SR was 43.4 µM (inactive); with COLO 205 it was 3.52 µM (inactive); in the assay on HOP-62 it was 21 µM (inactive).

For the compound `COC(C/C(=C/CO[Si](C(C)C)(C(C)C)C(C)C)C(=O)N(COCC[Si](C)(C)C)c1ccccc1I)OC`, the GI50 was 15.6 µM (inactive) with UACC-62; 16.2 µM (inactive) in the assay with MOLT-4; 4.58 µM (inactive) in the assay with SF-295; 63.1 µM (inactive) with TK-10; 31.4 µM (inactive) in the assay with 786-0; 55.3 µM (inactive) with UO-31. Besides, the GI50 is 22.7 µM (inactive) with CCRF-CEM; 14 µM (inactive) in the assay on SK-MEL-28; 26.6 µM (inactive) in the assay with M14; 60.3 µM (inactive) in the assay on HT-29; 42.2 µM (inactive) with OVCAR-4; 42 µM (inactive) in the assay on HOP-92. Also, the GI50 is > 100 µM (inactive) in the assay on SR, 57.7 µM (inactive) in the assay with COLO 205, 14.7 µM (inactive) in the assay on LOX IMVI and 50.9 µM (inactive) with HOP-62.

As for `CCOC(=O)Nc1[nH]cc(-c2ccccc2)c1C#N`, the GI50 in the assay on UACC-62, in the assay on MOLT-4, with SF-295, in the assay on EKVX, in the assay on TK-10 and in the assay with 786-0 was > 100 µM (inactive) throughout. Further, the GI50 in the assay with UO-31, in the assay on NCI-H522, with CCRF-CEM, in the assay with SK-MEL-28, in the assay on M14 and with SF-268 was > 100 µM (inactive) each time. Further, the GI50 in the assay on HT-29, in the assay with OVCAR-4, with SR, with COLO 205, in the assay with LOX IMVI and in the assay on HOP-62 was > 100 µM (inactive) each time.

With `CC1(C)OCC(C2OC(OC(=O)c3ccc(C(F)(F)F)cc3)C3OC(C)(C)OC23)O1` (stereo unspecified), the GI50 was > 77.4 µM (inactive) with UACC-62; 38 µM (inactive) with MOLT-4; > 77.4 µM (inactive) in the assay with SF-295; > 77.4 µM (inactive) with EKVX; > 77.4 µM (inactive) with TK-10; 46.5 µM (inactive) in the assay with 786-0. The GI50 in the assay on UO-31 was 19 µM (inactive); with NCI-H522, > 77.4 µM (inactive); with CCRF-CEM, 28.2 µM (inactive); with SK-MEL-28, > 77.4 µM (inactive); in the assay on M14 it was > 77.4 µM (inactive); with SF-268, 45.4 µM (inactive). In addition, the GI50 in the assay with HT-29 was 73.1 µM (inactive); with OVCAR-4 it was > 77.4 µM (inactive); in the assay on SR, 23.4 µM (inactive); with COLO 205 it was > 77.4 µM (inactive); in the assay on LOX IMVI it was > 77.4 µM (inactive); in the assay with HOP-62, 39.9 µM (inactive).

`O=C(O)c1ccccc1/C=C1\Cc2cc3c(cc2C1=O)CCC3`: the GI50 was 16.9 µM (inactive) with UACC-62; 17.4 µM (inactive) with MOLT-4; 24 µM (inactive) in the assay with SF-295; 32.1 µM (inactive) in the assay on EKVX; 17.8 µM (inactive) with TK-10; 29 µM (inactive) in the assay with 786-0. The GI50 in the assay with UO-31 was 33.9 µM (inactive); with NCI-H522, 18.9 µM (inactive); with CCRF-CEM, 18.8 µM (inactive); in the assay with SK-MEL-28, 50.5 µM (inactive); in the assay on M14, 23.5 µM (inactive); in the assay with SF-268, 35.3 µM (inactive). In addition, the GI50 in the assay with HT-29 was 19.2 µM (inactive); in the assay on OVCAR-4, 28.1 µM (inactive); with SR it was 4.72 µM (inactive); with COLO 205 it was 21.9 µM (inactive); in the assay on LOX IMVI, 14.9 µM (inactive); with HOP-62, 25.3 µM (inactive).
